From PMC6572135, “N-Methyl-D-glucamine–Calix[4]resorcinarene Conjugates: Self-Assembly and Biological Properties” (Molecules, 2019)
Converted amounts (≈) assume the structure as drawn.

Legend:
[1] = Hydrophobic dye (Sudan I) solubilization; assay type: physicochemical; conditions: water solution; GCR-2 with two-fold excess of MG; absorption band at 500 nm region
Experimental: The method of solubilization of the hydrophobic dye Sudan I was used for determination of formed aggregates’ morphology. The appearance of an absorption band characteristic of a lipophilic substance in an aqueous solution of a specific component indicates the formation of a hydrophobic core of the component aggregates, like in surfactant micelles, which solubilizes the hydrophobic substrate.
(§1) Dependence of GCR-2 at 500 nm on its concentration also loses linearity at higher 7.2 mM (Figure 3b). This is because the dissolved molecules of GCR-2 aggregate that confirms by conductometry and tensiometry. The obtained values of the correlation coefficients r^2 calculated for both calixarenes in a wide concentration range depict that GCR-2 has a greater ability to aggregate than GCR-1. […] Probably, the short methyl groups fail to form a nonpolar core capable of incorporating hydrophobic guests. […]
Hydrophobic dye solubilization was carried out by adding an excess of Sudan I to solutions. […] They were filtered, and Sudan I absorbance was measured at 486 nm using a Specord 250 Plus spectrophotometer (Analytic Jena, Jena, Germany) using a 1 mm optical path length quartz cell. Dye absorbance was obtained by subtraction of the contribution of macrocycle to the summary spectrum. Each absorbance spectrum was obtained three times, and the absorbance intensities were within 2–3%.

C.albicans 855–653 = assay: Fungistatic activity (MIC), dilution method; assay type: cell-based; conditions: Candida albicans; C.albicans 855–653, fungistatic activity; read-out: Minimal Inhibiting Concentration (MIC)
Experimental: (§2) In vitro bacteriostatic and fungistatic activities of the macrocycles were evaluated against pathogenic representatives of Gram-positive bacteria (Staphylococcus aureus 209p, Bacillus cereus 8035), Gram-negative bacteria (Pseudomonas aeruginosa 9027, Escherichia coli F-50), and yeast (Trichophyton mentagrophytes var. gypseum 1773, Aspergillus niger BKMF-1119, Candida albicans 885–653). Minimal inhibitory concentrations (MICs) were estimated by conventional dilution methods for bacteria and fungi. The antibacterial and antifungal assays were performed in Hottinger broth (HiMe-dia Laboratories Pvt. Ltd. Mumbai, India) and Sabouraud dextrose broth (HiMedia Laboratories Pvt. Ltd.) (bacteria 3 × 10^5 cfu/mL and yeast 2 × 10^4 cfu/mL). The bactericidal and fungicidal activities were determined as described earlier. The tests were repeated three times.

[2] = Dynamic light scattering, hydrodynamic diameter; assay type: physicochemical; conditions: water
B. cereus 8035 = assay: Bactericidal activity (MBC); assay type: cell-based; conditions: Bacillus cereus; B. cereus 8035, bactericidal activity; read-out: Minimal Bactericidal Concentration (MBC)
Experimental: as §2

S. aureus 209P = assay: Bactericidal activity (MBC); assay type: cell-based; conditions: Staphylococcus aureus, read-out: Minimal Bactericidal Concentration (MBC)
Experimental: as §2

[3] = UV spectroscopy (absorption at 500 nm), critical aggregation concentration; assay type: physicochemical; conditions: water solution; GCR-2 in the presence of two-fold excess of MG
Experimental: Consequently, there is a chance that GCR-1 aggregates form not only by hydrogen bonds between hydroxylic groups but also by electrostatic interaction between negatively charged sulfonate groups on the lower rim and partially-positively charged meglumine groups on the upper rim. The change of optical density at 500 nm with increasing GCR-1 concentration has a nonlinear character (Figure 3b). The linear dependence breaks after 10 mM that correlates well with the CAC obtained by conductometry and tensiometry, and this violation of Lambert-Beer law is due to formation of GCR-1 aggregates in solution.
as §1, with “guests. Thus, the cooperative effect of hydrogen bonds and π-stacking between GCR-2 molecules contribute to formation of compact aggregates incapable to solubilization of hydrophobic molecules.” for “guests.”

[4] = Zeta potential by electrophoretic light scattering; assay type: physicochemical; conditions: water solution, 25 °C; GCR-2 in the presence of two-fold excess MG; concentration not given
Experimental: Formation of aggregates with increasing GCR-1 concentration was confirmed by the DLS method. In aqueous 1 mM GCR-1 solutions the formation of small particles with hydrodynamic diameter of 2.9 nm was observed (Figure 4a). This size is much more similar to that of a single molecule that to that of an aggregate. However, the bimodal distribution with peaks at 120 nm and 504 nm occurs for solution with 50 mM GCR-1. This could be attributed to the formation different stacked structures by head-to-head or head-to-tail interaction between GCR-1 molecules. […] Zeta-potential of GCR-1 aggregates obtained by electrophoretic light scattering in solution was −56.8 mV that correspond to sufficiently stable systems. Negative value was caused by dissociation of sulfonate groups of GCR-1 lower rim in aqueous medium. To confirm the morphology and dimension of the GCR-1 aggregates, TEM image was recorded (Figure 5a), where it was shown that GCR-1 molecules were assembled into non-well-defined large nanoparticles. The probable reason for such high polydispersity is multiple supramolecular interactions, such as Coulombic interactions between oppositely charged rims through head-to-tail self-assembly, hydrogen bonding between hydroxyl groups by head-to-head joining and π-π stacking between aromatic units of neighboring macrocycles (Figure 6a). […]

[5] = Stability of water solutions; assay type: physicochemical; conditions: water without MG

MIC (C.albicans 855–653): > 500 µM | Hydrodynamic diameter ([2]; 15 mM GCR-2–30 mM MG mixed system): 3.8 nm | Hydrodynamic diameter ([2]; mixed 1 mM GCR-2–2 mM MG system): 2 nm | CAC, UV spectroscopy (loss of linearity of absorption at 500 nm) [3]: 7.2 mM | Zeta-potential of aggregates [4]: −17.4 mV | Stability of water solutions [5]: unstable and eventually precipitate
Structure (SMILES): CC1c2cc(c(O)c(CN(C)C[C@@H](O)[C@H](O)[C@@H](O)[C@@H](O)CO)c2O)C(C)c2cc(c(O)c(CN(C)C[C@@H](O)[C@H](O)[C@@H](O)[C@@H](O)CO)c2O)C(C)c2cc(c(O)c(CN(C)C[C@@H](O)[C@H](O)[C@@H](O)[C@@H](O)CO)c2O)C(C)c2cc1c(O)c(CN(C)C[C@@H](O)[C@H](O)[C@@H](O)[C@@H](O)CO)c2O (stereo partly drawn) [GCR-2, N-methyl-D-glucaminemethyl methylcalix[4]resorcinarene]
Solubilization of hydrophobic dye Sudan I [1]: do not solubilize the hydrophobic Sudan I | MBC (B. cereus 8035): > 1000 µM | MBC (S. aureus 209P): 1000 ± 80 µM (≈ 1370 µg/mL)
